Measurements from patent publication US20070049593A1 (priority 2004, published 2007).
Counter-ions that a name gives are not always drawn.

Molecular target: T1, HCV polymerase (Hepatitis C virus genotype 1b, UniProt P26663)
T1 construct: a region encoding NS5B (J Virol 1991 March, 65(3), 1105-13, 544 amino acids after deletion of 47 amino acids on the C-terminal); 6xHis (C); made in house; host or cells: Escherichia coli
Assay: biochemical
Design: species or system HCV BK strain
Procedure, shortened: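 Recombinant HCV BK-strain NS5B (C-terminal 47 aa deleted, His6-tagged, E. coli), 0.5 μg/ml, run with 5 μg/ml in vitro-transcribed RNA template (polyU/3′X), ATP/GTP/CTP 50 μM, UTP 2 μM plus [3H]UTP, pH 7.5, 25° C, 90 min. TCA-precipitated RNA counted by scintillation; IC50 from activity with vs without compound.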

T1 sequence (P26663 2420-2963): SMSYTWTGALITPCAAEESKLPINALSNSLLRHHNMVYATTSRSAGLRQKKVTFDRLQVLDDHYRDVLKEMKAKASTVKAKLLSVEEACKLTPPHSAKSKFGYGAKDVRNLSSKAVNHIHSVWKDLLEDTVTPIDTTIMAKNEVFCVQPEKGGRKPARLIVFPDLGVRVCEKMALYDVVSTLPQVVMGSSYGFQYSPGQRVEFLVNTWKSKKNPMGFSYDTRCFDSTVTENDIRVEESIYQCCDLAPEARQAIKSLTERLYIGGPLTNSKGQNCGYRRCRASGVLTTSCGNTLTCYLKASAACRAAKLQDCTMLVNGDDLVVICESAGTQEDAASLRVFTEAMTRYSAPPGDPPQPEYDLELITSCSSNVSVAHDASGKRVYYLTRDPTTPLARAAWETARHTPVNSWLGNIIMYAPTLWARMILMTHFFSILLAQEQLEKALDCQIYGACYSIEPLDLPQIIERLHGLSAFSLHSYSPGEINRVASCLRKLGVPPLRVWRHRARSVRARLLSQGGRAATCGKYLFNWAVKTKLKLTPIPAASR

`CN(C)CCN1CCn2c(c(C3CCCCC3)c3ccc(C(=O)O)cc32)-c2ccc(OCc3cccc(C(=O)O)c3)cc21` [Example 1-586, 3-(3-carboxybenzyloxy)-13-cyclohexyl-5-(2-dimethylaminoethyl)-6,7-dihydro-5H-benzo[5,6][1,4]diazepino[7,1-a]indole-10-carboxylic acid dihydrochloride] and `CNC(=O)c1cccc(COc2ccc3c(c2)N(CCN(C)C)CCn2c-3c(C3CCCCC3)c3ccc(C(=O)O)cc32)c1` [Example 1-590, 13-cyclohexyl-5-(2-dimethylaminoethyl)-3-(3-methylcarbamoylbenzyloxy)-6,7-dihydro-5H-benzo[5,6][1,4]diazepino[7,1-a]indole-10-carboxylic acid dihydrochloride] cannot be ordered by IC50: < 100 nM for the first, < 100 nM for the second.

`CN(C)CCN1CCn2c(c(C3CCCCC3)c3ccc(C(=O)O)cc32)-c2ccc(OCc3cccc(C(=O)N(C)C)c3)cc21` [Example 1-587, 13-cyclohexyl-5-(2-dimethylaminoethyl)-3-(3-dimethylcarbamoylbenzyloxy)-6,7-dihydro-5H-benzo[5,6][1,4]diazepino[7,1-a]indole-10-carboxylic acid dihydrochloride] and `CN(C)CCN1CCn2c(c(C3CCCCC3)c3ccc(C(=O)O)cc32)-c2ccc(OCc3cccc(N(C)C)c3)cc21` [Example 1-591, 13-cyclohexyl-3-(3-dimethylaminobenzyloxy)-5-(2-dimethylaminoethyl)-6,7-dihydro-5H-benzo[5,6][1,4]diazepino[7,1-a]indole-10-carboxylic acid trihydrochloride] cannot be ordered by IC50: < 100 nM for the first, < 100 nM for the second.

`Cc1ccc2c(c1)N(CCc1nc(C)cs1)CCn1c-2c(C2CCCCC2)c2ccc(C(=O)O)cc21` [Example 1-588, 13-cyclohexyl-3-methyl-5-[2-(4-methylthiazol-2-yl)ethyl]-6,7-dihydro-5H-benzo[5,6][1,4]diazepino[7,1-a]indole-10-carboxylic acid] and `Cc1cccc(COc2ccc3c(c2)N(CCN(C)C)CCn2c-3c(C3CCCCC3)c3ccc(C(=O)O)cc32)n1` [Example 1-589, 13-cyclohexyl-5-(2-dimethylaminoethyl)-3-(6-methylpyridin-2-ylmethoxy)-6,7-dihydro-5H-benzo[5,6][1,4]diazepino[7,1-a]indole-10-carboxylic acid trihydrochloride] cannot be ordered by IC50: < 100 nM for the first, < 100 nM for the second.

`CCOc1ccc2c(c1)N(C)CCn1c-2c(C2CCCCC2)c2ccc(C(=O)O)cc21` [Example 1-592, 13-cyclohexyl-3-ethoxy-5-methyl-6,7-dihydro-5H-benzo[5,6][1,4]diazepino[7,1-a]indole-10-carboxylic acid] and `COc1ccc2c(c1)N(C)CCn1c-2c(C2CCCCC2)c2ccc(C(=O)O)cc21` [Example 1-594, 13-cyclohexyl-3-methoxy-5-methyl-6,7-dihydro-5H-benzo[5,6][1,4]diazepino[7,1-a]indole-10-carboxylic acid] cannot be ordered by IC50: < 100 nM for the first, < 100 nM for the second.

`CN1CCn2c(c(C3CCCCC3)c3ccc(C(=O)O)cc32)-c2ccc(OCc3ccccc3)cc21` [Example 1-593, 3-benzyloxy-13-cyclohexyl-5-methyl-6,7-dihydro-5H-benzo[5,6][1,4]diazepino[7,1-a]indole-10-carboxylic acid] and `O=C(O)c1ccc2c(C3CCCCC3)c3n(c2c1)CCOc1cc(OCc2ccccc2)ccc1-3` [Example 2-3, 3-benzyloxy-12-cyclohexyl-6,7-dihydro-5-oxa-7a-azadibenzo[a,e]azulene-9-carboxylic acid] cannot be ordered by IC50: < 100 nM for the first, < 100 nM for the second.

`O=C(O)c1ccc2c(C3CCCCC3)c3n(c2c1)CCN(CCN1CCCCC1)c1cc(OCc2ccccn2)ccc1-3` [Example 1-595, 13-cyclohexyl-5-[2-(piperidin-1-yl)ethyl]-3-(pyridin-2-ylmethoxy)-6,7-dihydro-5H-benzo[5,6][1,4]diazepino[7,1-a]indole-10-carboxylic acid trihydrochloride] and `O=C(O)c1ccc2c(C3CCCCC3)c3n(c2c1)CCOc1cc(OCc2cc(N4CCCC4=O)ccc2N2CCOCC2)ccc1-3` [Example 2-5, 12-cyclohexyl-3-[2-(morpholin-4-yl)-5-(2-oxopyrrolidin-1-yl)benzyloxy]-6,7-dihydro-5-oxa-7a-azadibenzo[a,e]azulene-9-carboxylic acid monohydrochloride] cannot be ordered by IC50: < 100 nM for the first, < 100 nM for the second.

`CCOc1ccc2c(c1)N(C)CCn1c-2c(C2CCCCC2)c2ccc(C(=O)NC(C)(C)C(=O)Nc3ccc(/C=C/C(=O)O)cc3)cc21` [Example 1-615, (E)-3-(4-{2-[(13-cyclohexyl-3-ethoxy-5-methyl-6,7-dihydro-5H-benzo[5,6][1,4]diazepino[7,1-a]indole-10-carbonyl)amino]-2-methylpropionylamino}phenyl)acrylic acid] and `CCOc1ccc2c(c1)N(C)CCn1c-2c(C2CCCCC2)c2ccc(C(=O)NC3(C(=O)Nc4cccc(/C=C/C(=O)O)c4)CCC3)cc21` [Example 1-616, (E)-3-[3-({1-[(13-cyclohexyl-3-ethoxy-5-methyl-6,7-dihydro-5H-benzo[5,6][1,4]diazepino[7,1-a]indole-10-carbonyl)amino]cyclobutanecarbonyl}amino)phenyl]acrylic acid] cannot be ordered by IC50: < 100 nM for the first, < 100 nM for the second.

`CCOc1ccc2c(c1)N(C)CCn1c-2c(C2CCCCC2)c2ccc(C(=O)NC3(C(=O)Nc4ccc(/C=C/C(=O)O)cc4OC)CCC3)cc21` [Example 1-617, (E)-3-[4-({1-[(13-cyclohexyl-3-ethoxy-5-methyl-6,7-dihydro-5H-benzo[5,6][1,4]diazepino[7,1-a]indole-10-carbonyl)amino]cyclobutanecarbonyl}amino)-3-methoxyphenyl]acrylic acid] and `CCOc1ccc2c(c1)N(C)CCn1c-2c(C2CCCCC2)c2ccc(C(=O)NC3(C(=O)Nc4ccc(OC)c(/C=C/C(=O)O)c4)CCC3)cc21` [Example 1-619, (E)-3-[5-({1-[(13-cyclohexyl-3-ethoxy-5-methyl-6,7-dihydro-5H-benzo[5,6][1,4]diazepino[7,1-a]indole-10-carbonyl)amino]cyclobutanecarbonyl}amino)-2-methoxyphenyl]acrylic acid] cannot be ordered by IC50: < 100 nM for the first, < 100 nM for the second.

`CCOc1ccc2c(c1)N(C)CCn1c-2c(C2CCCCC2)c2ccc(C(=O)NC3(C(=O)Nc4ccc(Cl)c(/C=C/C(=O)O)c4)CCC3)cc21` [Example 1-618, (E)-3-[2-chloro-5-({1-[(13-cyclohexyl-3-ethoxy-5-methyl-6,7-dihydro-5H-benzo[5,6][1,4]diazepino[7,1-a]indole-10-carbonyl)amino]cyclobutanecarbonyl}amino)phenyl]acrylic acid] and `CCOc1ccc2c(c1)N(C)CCn1c-2c(C2CCCCC2)c2ccc(C(=O)NC3(C(=O)Nc4ccc(C=CC(=O)O)c(Cl)c4)CCC3)cc21` [Example 1-623, (E)-3-[2-chloro-4-({1-[(13-cyclohexyl-3-ethoxy-5-methyl-6,7-dihydro-5H-benzo[5,6][1,4]diazepino[7,1-a]indole-10-carbonyl)amino]cyclobutanecarbonyl}amino)phenyl]acrylic acid] cannot be ordered by IC50: < 100 nM for the first, < 100 nM for the second.

`CCOc1ccc2c(c1)N(C)CCn1c-2c(C2CCCCC2)c2ccc(C(=O)NC3(C(=O)Nc4ccc(C)c(/C=C/C(=O)O)c4)CCC3)cc21` [Example 1-620, (E)-3-[5-({1-[(13-cyclohexyl-3-ethoxy-5-methyl-6,7-dihydro-5H-benzo[5,6][1,4]diazepino[7,1-a]indole-10-carbonyl)amino]cyclobutanecarbonyl}amino)-2-methylphenyl]acrylic acid] and `CCOc1ccc2c(c1)N(C)CCn1c-2c(C2CCCCC2)c2ccc(C(=O)NC3(C(=O)Nc4ccc(/C=C/C(=O)O)c(C)c4)CCC3)cc21` [Example 1-621, (E)-3-[4-({1-[(13-cyclohexyl-3-ethoxy-5-methyl-6,7-dihydro-5H-benzo[5,6][1,4]diazepino[7,1-a]indole-10-carbonyl)amino]cyclobutanecarbonyl}amino)-2-methylphenyl]acrylic acid] cannot be ordered by IC50: < 100 nM for the first, < 100 nM for the second.

`CCOc1ccc2c(c1)N(C)CCn1c-2c(C2CCCCC2)c2ccc(C(=O)NC3(C(=O)Nc4ccc(/C=C/C(=O)O)c(OC)c4)CCC3)cc21` [Example 1-622, (E)-3-[4-({1-[(13-cyclohexyl-3-ethoxy-5-methyl-6,7-dihydro-5H-benzo[5,6][1,4]diazepino[7,1-a]indole-10-carbonyl)amino]cyclobutanecarbonyl}amino)-2-methoxyphenyl]acrylic acid] and `O=C(O)c1ccc2c(C3CCCCC3)c3n(c2c1)CCOc1cc(OCc2ccc(N4CCCC4=O)cc2N2CCOCC2)ccc1-3` [Example 2-9, 12-cyclohexyl-3-[2-(morpholin-4-yl)-4-(2-oxopyrrolidin-1-yl)benzyloxy]-6,7-dihydro-5-oxa-7a-azadibenzo[a,e]azulene-9-carboxylic acid] cannot be ordered by IC50: < 100 nM for the first, < 100 nM for the second.

Compared with `COc1ccc2c(c1)OCCn1c-2c(C2CCCCC2)c2ccc(C(=O)O)cc21` [Example 2-4, 12-cyclohexyl-3-methoxy-6,7-dihydro-5-oxa-7a-azadibenzo[a,e]azulene-9-carboxylic acid], `COc1ccc2c(c1)-c1c(C3CCCCC3)c3ccc(C(=O)O)cc3n1CCO2` [Example 2-6, 12-cyclohexyl-2-methoxy-6,7-dihydro-5-oxa-7a-azadibenzo[a,e]azulene-9-carboxylic acid] is higher in IC50: < 100 nM for the first, 100 to 1000 nM for the second.

`CC(C)(C)OC(=O)N1CCC(Oc2ccc3c(c2)OCCn2c-3c(C3CCCCC3)c3ccc(C(=O)O)cc32)CC1` [Example 2-10, 3-(1-tert-butoxycarbonylpiperidin-4-yloxy)-12-cyclohexyl-6,7-dihydro-5-oxa-7a-azadibenzo[a,e]azulene-9-carboxylic acid] and `CC(C)(C)OC(=O)N1CCCC(Oc2ccc3c(c2)OCCn2c-3c(C3CCCCC3)c3ccc(C(=O)O)cc32)C1` (centres unmarked) [Example 2-11, 3-(1-tert-butoxycarbonylpiperidin-3-yloxy)-12-cyclohexyl-6,7-dihydro-5-oxa-7a-azadibenzo[a,e]azulene-9-carboxylic acid] cannot be ordered by IC50: < 100 nM for the first, < 100 nM for the second.
